This note sets out measurements from PMC8566451, “Lead optimization of novel quinolone chalcone compounds by a structure–activity relationship (SAR) study to increase efficacy and metabolic stability” (Scientific Reports, 2021).

As usually defined, the IC50 is the concentration that gives 50% inhibition. A low value points to greater potency. As a reminder, the GI50 is the concentration that inhibits growth by half.

SMILES strings stand for the structures. Where two headings read alike, the source gives them in different places.

In one assay the test system is HeLa. Description: Sulforhodamine B (SRB) assay. The assay is classed as cell-based. The settings on record: Homo sapiens; for IC50: HeLa, Supplementary Table S1, SRB; for GI50: HeLa cervical cancer cells, 48 h, SRB. As to the method: (§1) The human MDA-MB-231, MCF7, MDA-MB-468, RPMI-8226 and HeLa cell lines were purchased from ATCC and maintained in Dulbecco's Modified Eagle Medium (DMEM)—high glucose supplemented with 10% fetal bovine serum (FBS) and antibiotics/antimycotics. Cell line authentication was carried out by Genetica DNA Laboratories (Burlington, NC) using a short tandem repeat (STR) profiling method (March 2015; July 2015; September 2016). Melanoma cells E-055 (MZ-Mel-3), E-097 (Mel-SOE), E-112 (UKRV-Mel-38), E-157 (UKRV-Mel-17) were obtained from the European Searchable Tumour Line Database (ESTDAB) cell bank (a kind gift of Dr. Graham Pawelec, Tubingen University, Germany). MDA-MB-435 was purchased from the Division of Cancer Treatment and Diagnosis Tumor Repository. All melanoma cells were cultured in Roswell Park Memorial Institute (RPMI) medium supplemented with 10% FBS and P/S/antimycotics. Primary human epidermal melanocytes from normal adult abdominal skin were purchased from ATCC (cat # PCS-200–013) and Cell Applications (cat#104-05a). The melanocytes were cultured in the media supplied by the companies.
(§2) The SRB assay was used to assess drug-induced cytotoxicity and cell proliferation as previously described[2],[33],[34] with a few modifications. Briefly, cells were plated 10,000 to 25,000 cells/cm^2 in 96-well plates (100 µl medium) and allowed to adhere overnight. The cell counts were different for each cell line to ensure optimal cell growth for the duration of the assay. Eight different concentrations of compound solutions using 2–4 times serial dilutions (100 µl). Cells were then incubated for an additional 48 h and then fixed with 100 µl ice-cold 10% (w/v) trichloroacetic acid (TCA) (without removing the cell medium, final concentration, 3.3% of TCA) and stained with 0.4% SRB (w/v) in 1% acetic acid (v/v). The relative growth rate (%) was calculated for each of the compound concentrations according to the following formula: 100 * (T − T0)/(C − T0), in which T is the optical density (OD) after exposure to a certain concentration of the compound after 48 h, T0 is the OD at the start of drug exposure (time zero) and C is the control growth. The GI50 for each compound was obtained from a non-linear sigmoidal dose–response (variable slope) curve fitted by GraphPad Prism v.4.03 software.
In general terms: The SRB assay estimates cell density from bound dye.

The next assay has as its system MCF7. Briefly: Sulforhodamine B (SRB) assay. The settings on record: Homo sapiens; for IC50: MCF7, Supplementary Table S1, SRB; for GI50: MCF7 breast cancer cells, 48 h, SRB. The assay is classed as cell-based. The method, then: as §1, §2
For a further assay, the system named is MDA-MB231. Description: Sulforhodamine B (SRB) assay. The following applies: Homo sapiens, MDA-MB-231; for GI50: MDA-MB231 breast cancer cells, 48 h, SRB; for IC50: Supplementary Table S1, SRB. It counts as cell-based. As to the method: as §1, §2
For a further assay, the system named is MDA-MB435. Briefly: Sulforhodamine B (SRB) assay. The assay is classed as cell-based. The following applies: Homo sapiens, MDA-MB-435, MDA-MB435 cells, 48 h. The method, then: as §1, §2
For another assay, the system named is MDA-MB468. Briefly: Sulforhodamine B (SRB) assay. It counts as cell-based. The following applies: Homo sapiens, MDA-MB-468, MDA-MB468 breast cancer cells, 48 h. The method, then:
as §1, §2

A further assay concerns MZ-Mel-3. Briefly: Sulforhodamine B (SRB) assay. It counts as cell-based. The settings on record: MZ-Mel-3 melanoma cells, 48 h. The method, then: as §1, §2
A further assay relates to Mel-SOE. Briefly: Sulforhodamine B (SRB) assay. It counts as cell-based. The following applies: Mel-SOE melanoma cells, 48 h. The method, then: as §1, §2
For another assay, the system named is RPMI-8226. Description: Sulforhodamine B (SRB) assay. The assay is classed as cell-based. The following applies: Homo sapiens, Supplementary Table S1, SRB. The method, then:
as §1, §2

In the next assay the test system is UKRV-Mel-17. Description: Sulforhodamine B (SRB) assay. The assay is classed as cell-based. The settings on record: UKRV-Mel-17 melanoma cells, 48 h. As to the method: as §1, §2
The next assay has as its system UKRV-Mel-38. Briefly: Sulforhodamine B (SRB) assay. The settings on record: UKRV-Mel-38 melanoma cells, 48 h. It counts as cell-based. The method, then: as §1, §2
Assay [1] has as its system primary human epidermal melanocytes. Briefly: GI50 on primary skin cells. The settings on record: for GI50: Homo sapiens, Melanocyte, primary skin cells; for Selectivity Index (primary skin cells): primary melanocytes versus average GI50 of cancer cells. The assay is classed as cell-based. As to the method:
as §1, §2

A further assay relates to HeLa cells. Briefly: Combination of CTR-21 with ABT-737, combinatorial index. The assay is classed as cell-based, human. As to the method:
(§3) (a) CTR-21 kills HeLa in a synergistic manner with ABT-737. Cells were treated with 0.78 nM CTR-21 and indicated concentrations of ABT-737. CI denotes combinatorial index, calculated according to described previously. (b) CTR-21 effectively kills paclitaxel-resistant cells when combined with paclitaxel. The paclitaxel-resistant MDA-MB-231TaxR cells were treated with 23 nM of CTR-21 and indicated concentrations of paclitaxel. TEXT PRINTED IN THE PICTURE: (a) Combo: HeLa: CI: 0.93 (ABT-737 (12.5 μM); CTR-21 (0.78 nM)); HeLa: CI: 0.94 (ABT-737 (6.25 μM); CTR-21 (0.78 nM)); HeLa: CI: 0.81 (ABT-737 (3.125 μM); CTR-21 (0.78 nM)); HeLa: CI: 0.48 (ABT-737 (1.5625 μM); CTR-21 (0.78 nM)) | (b) Combo: MDA-MB-231-TaxR: CI: 0.56 (Paclitaxel (75 nM); CTR-21 (23 nM)); MDA-MB-231-TaxR: CI: 0.38 (Paclitaxel (37.5 nM); CTR-21 (23 nM)); MDA-MB-231-TaxR: CI: 0.35 (Paclitaxel (18.75 nM); CTR-21 (23 nM)) DOUBTS OF THE COPYIST ABOUT THIS PICTURE: Each CI value is printed over a group of three bars (the two single agents and Combo). It is assigned here to the Combo, with the concentrations of the two agents given as conditions.

Another assay deals with MDA-MB-231TaxR cells. Description: Combination of CTR-21 with paclitaxel, combinatorial index. The assay is classed as cell-based, human. The settings on record: paclitaxel 18.75 nM + CTR-21 23 nM. As to the method: as §3
In assay [2] the test system is cancer cell lines (breast cancer, melanoma, cervical cancer). Description: SRB assay, average GI50 over cancer cell lines. The following applies: for fold decrease in GI50 relative to CTR-17: average GI50 compared with CTR-17. The assay is classed as cell-based. The method, then:
as §2

Setting [3] is: Melanocytes #1, read-out: GI50 Melanocytes #1.
Setting [4] is: Melanocytes #2, read-out: GI50 Melanocytes #2.
[5] abbreviates: Table 1 and Supplemental Table S1 cell lines, read-out: GI50 range over the cancer cell lines.
Where [6] appears, read: average over the cell lines of Table 1 or Supplemental Table S1, read-out: average GI50.

With `COc1ccccc1C(=O)/C=C/c1cc2cccc(OC)c2[nH]c1=O` [CTR-21, (E)-8-methoxy-3-(3-(2-methoxyphenyl)-3-oxoprop-1-enyl) quinolin-2(1H)-one], the IC50 worked out at 11.9 ± 1.4 nM in the assay on HeLa, 75.1 ± 3.07 nM in the assay with MCF7, 56.9 ± 10.5 nM in the assay on MDA-MB231 and 5.34 ± 0.89 nM in the assay with RPMI-8226. For the same molecule, the GI50 came out at 8 ± 3 nM in the assay with HeLa; 16 ± 5 nM with MCF7; 17 ± 3 nM with MDA-MB231; 7 ± 2 nM in the assay with MDA-MB435; 29 ± 10 nM in the assay on MDA-MB468; 6 ± 1 nM in the assay on MZ-Mel-3. The concentration for 50% growth inhibition (GI50) is 27 ± 5 nM with Mel-SOE; 9 ± 2 nM with UKRV-Mel-17; 13 ± 3 nM in the assay on UKRV-Mel-38; 2090 ± 804 nM in assay [1] (setting [3]); 3050 ± 960 nM in [1] (setting [4]); 5 to 91 nM in [2] (setting [5]). The GI50 in [2] (setting [6]) was determined as 16.4 nM. Besides, the “Selectivity Index (primary skin cells)” value in assay [1] is given as 157. Also, the “CI (combinatorial index)” value in the assay on HeLa cells (ABT-737 1.5625 μM + CTR-21 0.78 nM) is 0.48; with MDA-MB-231TaxR cells it was 0.35. Moreover, the “combination index (CI)” value with HeLa cells (CTR-21 0.78 nM with low doses of ABT-737) was “less than 1.0”. In addition, in [2], the “SI, cancer over normal cells” value is more than 100 fold. For the same molecule, the “enhancement of potency over CTR-17 and CTR-20” value in assay [2] was ~ 30 fold. Also, the “fold decrease in GI50 relative to CTR-17” value in assay [2] worked out at 31 fold.
Turning to `CCOc1ccccc1C(=O)/C=C/c1cc2ccccc2[nH]c1=O` [CTR-32, (E)-3-(3-(2-ethoxyphenyl)-3-oxoprop-1-enyl)quinolin-2(1H)-one], the concentration for half-maximal inhibition (IC50) was 12.9 ± 0.35 nM in the assay on HeLa, 46.4 ± 3.61 nM in the assay on MCF7, 44.2 ± 4.21 nM in the assay with MDA-MB231 and 6.29 ± 1.43 nM in the assay with RPMI-8226. Besides, the GI50 came out at 11 ± 2 nM with HeLa; 27 ± 6 nM in the assay with MCF7; 20 ± 2 nM in the assay with MDA-MB231; 13 ± 5 nM with MDA-MB435; 26 nM with MDA-MB468; 6 ± 2 nM with MZ-Mel-3. Further, the GI50 in the assay on Mel-SOE is 33 ± 9 nM; in the assay with UKRV-Mel-17, 18 ± 3 nM; in the assay on UKRV-Mel-38, 22 ± 3 nM; in assay [1] (setting [3]), 2630 ± 782 nM; in [1] (setting [4]), 3630 ± 1080 nM; in [2] (setting [5]), 5 to 91 nM. Besides, the 50% growth inhibitory concentration (GI50) in assay [2] (setting [6]) was 20 nM. Further, the “Selectivity Index (primary skin cells)” value in [1] worked out at 158. Besides, in assay [2], the “fold decrease in GI50 relative to CTR-17” value is reported as 23 fold.
